Where a name gives a salt, the structure may show the parent alone. Read-outs that look alike come from different tables or passages of the source.
What was measured:
[1] = test system: iCell Cardiomyocytes2 (hSC-CMs); assay: Ca2+-fluorescence assay in human pluripotent stem cell-derived cardiomyocytes (CTCM human); assay type: cell-based; design: key to Hazard Scoring Color @ 0.1 μM / Hazard Scoring Color @ 0.2 μM / Hazard Scoring Color @ 0.5 μM / Hazard Scoring Color @ 1 μM / Hazard Scoring Color @ 2.5 μM / Hazard Scoring Color @ 5 μM / Hazard Scoring Color @ 0.3 μM / Hazard Scoring Color @ 3 μM / Hazard Scoring Color @ 10 μM / Hazard Scoring Color @ 30 μM: Green: No concern; Yellow: Low concern; Red: High concern; Black: Very high concern due to arrhythmic events; conditions: 30 min
Description: 7) Cardio-Electrophysiological Effects of the Testing Compounds in Synchronously Beating Human Pluripotent Stem Cell-Derived Cardiomyocytes (hSC-CMs) Using a Ca^2+-Fluorescence Assay (CTCM Human)
Compounds were tested in the 96-well plates.
Compounds were tested at 0.1 μM, 0.2 μM, 0.5 μM, 1 μM, 2.5 μM and 5 μM (n=4 per dose) on Cor.4U®-Cardiomyocytes or on iCell® Cardionyocytes2.
Alternatively, compounds were tested at 0.1 μM, 0.3 μM; 1 μM, 3 μM, 10 μM and 30 μM (n=4 per dose) mostly on iCell® Cardiomyocytes2.
Vehicle control: Dimethylsulfoxide (DMSO). The solutions of the compound in DMSO or its solvent (final concentration of 0.1% DMSO; n=8).
Tested compounds were dissolved in DMSO at 1000-fold the intended concentrations. A compound “mother-plate” was made, containing the test compounds and positive and negative controls at 1000-fold the final concentrations. At the experiment day, these stock solutions were diluted with Tyrode (Sigma), supplemented with 10 mM HEPES (Gibco), to 2-fold the intended concentration (in round bottom compound plates). Final DMSO concentration in test solutions and vehicle control was 0.1%.
hSC-CMs (Cor.4U® Cardiomyocytes) were obtained from CDI (Ncardia, Germany). Cells are pre-plated and seeded in fibronectin-coated 96-well plates at a density suited to form a monolayer and maintained in culture in a stage incubator (37° C., 5% CO2), according to the instructions of the cell provider.
Second line hSC derived cardiomyocyte called iCell® Cardiomyocytes2 were purchased from FUJIFILM Cellular Dynamics (USA). The experiments with test drugs are carried out 5 to 7 days after plating the cells onto the plate to have a living, beating monolayer of hiPSC-derived cardiomyocytes. The beating monolayer in 96-well-plates are normally taken from 2 Vials of frozen iCell® Cardiomyocytes2 (≈5 million cells/vial), which will be plated onto three 96-well plates (≈50K/well).
At least one hour before the start of the experiments the normal cell medium was replaced with Tyrode solution with Calcium dye (see below).
Cal 520 dye (AAT Bioquest) was dissolved in 11 ml of Tyrode supplemented with 10 mM HEPES and warmed up to 37 C before adding to the cells.
35 μl cell culture medium was removed from each well and replaced with 35 μl of pre-warmed Cal 520 dye solution and cell plate was incubated for 45 min at 37° C./5% CO2. Cells were incubated for 5 min at 37° C.
Spontaneous electrical activity is recorded, using Cal520™ (AAT Bioquest) calcium fluorescence-dye signalling. This dye integrates the total intracellular calcium activity over the whole well. A bottle of Ca1520 dye (50 μg, MW: 1103/mol) is dissolved with 50 μl DMSO as a stock solution of 0.9 mM. 50 μL of the stock solution of the dye was added to 10 ml Tryodes solution to have dye concentration of 4.5 μM. Subsequently, 35 μl of this dye solution was added into each well, to have a final dye concentration of 1.58 μM. The current dye protocol on this CTCM human assay was established recently (Ivan Kopljar et al, Journal of Pharmacological and toxicological methods 2018. 91: 80-86; Lu et al., Tox Sci 2019. 170 (2): 345-356).
Fluorescent signals (Ca^2+ transient morphology) were measured using the Functional Drug Screen System (FDSS/μCell; Hamamatsu, Japan) and the recordings were subsequently analyzed off-line, using appropriate software e.g., Notocord.
The cell plate was loaded into the FDSS/μCell for a test run: Ca^2+ transients were measured for 4 minutes to check for synchronous beating of the cardiomyocytes in each well. All 96 wells were measured simultaneously (sampling interval: 0.06 s, short exposure time: 10 ms; excitation wavelength 480 nm; emission wavelength 540 nm; FDSS/μCell warmed to 37° C.).
During the compound addition step, 100 μl of the respective double-concentrated test solutions was pipetted into each well simultaneously.
Data were analyzed off-line using appropriate software e.g., Notocord-Hem (version 4.3). […]

[2] = Metabolic stability in mouse liver microsomes; assay type: in vitro ADME; conditions: pH 7.4, 0.5 mg/mL microsomes protein, read-out: Mouse LM Clint
Description: 4) Metabolic Stability in Human/Mouse Liver Microsomes
The objective of this study is to measure in vitro metabolic stability of test compound(s) in human and mouse liver microsomes and provide quantitative information on the rate of metabolic turnover (i.e., determination of the apparent intrinsic clearance of test).
Test items were prepared at a stock concentration of 10 mM in DMSO. For determination of metabolic turnover, a final working solution was prepared by adding 2 μL of 10 mM DMSO stock solution for test compound or positive control compounds to 198 μL of acetonitrile (100 μM final concentration).
Incubations were performed as follows: First, liver microsomes were thawed on ice and a master solution containing liver microsomes in 100 mM PBS (phosphate-buffered saline) at pH 7.4 is prepared. Next, the liver microsomes solution was added to the incubation plates and 10 mM NADPH (Nicotinamide-adenine dinucleotide phosphate) was added (MW: 833.4 g/mol; Roche Diagnostics GmbH1, Germany. Dissolved in phosphate buffer (100 mmol/L, pH 7.4)). The mixture was mixed for 10 seconds and pre-warmed in the incubation plate at 37° C. for 10 minutes. The metabolic reaction was initiated with the addition of 5 μL of the 100 μM working solution for test compound or positive control compounds to incubation plate (final test item concentration=1 μM). The reaction final mixture should contain 1 mM NADPH, 0.5 mg/mL microsomes protein and 1 μM test compound or positive control compound in 100 mM PBS at pH 7.4. The percentage of organic solvent in incubation mixture is 1% with DMSO 0.02%.
The reaction was quenched by transferring 50 μL of the incubated mixture at selected time points into the quenching plate containing 200 μL of cold methanol. […]
All calculations were carried out using Microsoft Excel. The slope value, k, was determined by linear regression of the natural logarithm of the remaining percentage of the parent drug vs. incubation time curve.
The in vitro half-life (in vitro t1/2) was determined from the slope value: […]

[3] = iCell Cardiomyocytes2 (Table 12)
[4] = iCell Cardiomyocytes2 (Table 11)

Row | SMILES | Hazard Scoring Color @ 0.1 μM [1, 3] | Hazard Scoring Color @ 0.3 μM ([1]; 0.3 μM, iCell Cardiomyocytes2 (Table 12)) | Hazard Scoring Color @ 1 μM [1, 3] | Hazard Scoring Color @ 3 μM ([1]; 3 μM, iCell Cardiomyocytes2 (Table 12)) | Hazard Scoring Color @ 10 μM ([1]; 10 μM, iCell Cardiomyocytes2 (Table 12)) | Hazard Scoring Color @ 30 μM ([1]; 30 μM, iCell Cardiomyocytes2 (Table 12)) | microsomal CLint at 1 μM ([2]; liver microsomes) [µL/min/mg] | Hazard Scoring Color @ 0.1 μM [1, 4] | Hazard Scoring Color @ 0.2 μM ([1]; 0.2 μM, iCell Cardiomyocytes2 (Table 11)) | Hazard Scoring Color @ 0.5 μM ([1]; 0.5 μM, iCell Cardiomyocytes2 (Table 11)) | Hazard Scoring Color @ 1 μM [1, 4] | Hazard Scoring Color @ 2.5 μM ([1]; 2.5 μM, iCell Cardiomyocytes2 (Table 11)) | Hazard Scoring Color @ 5 μM ([1]; 5 μM, iCell Cardiomyocytes2 (Table 11)) | microsomal CLint at 1 μM ([2]; mouse liver microsomes) [µL/min/mg]
1 | CCN(C(=O)c1cc(F)ccc1Oc1nncnc1N1CCC2(C1)CN([C@H](CCCNCCOC)C(C)C)C2)C(C)C [Compound 11, (R)-N-ethyl-5-fluoro-N-isopropyl-2-((5-(2-(6-((2-methoxyethyl)amino)-2-methylhexan-3-yl)-2,6-diazaspiro[3.4]octan-6-yl)-1,2,4-triazin-6-yl)oxy)benzamide] | Green | Green | Green | Green | Green | Green | < 7.5 | – | – | – | – | – | – | –
2 | CCN(C(=O)c1cc(F)ccc1Oc1nncnc1N1CCC2(C1)CN([C@H](CCCN(C)CCOC)C(C)C)C2)C(C)C [Compound A3, (R)-N-ethyl-5-fluoro-N-isopropyl-2-((5-(2-(6-((2-methoxyethyl) (methyl)amino)-2-methylhexan-3-yl)-2,6-diazaspiro[3.4]octan-6-yl)-1,2,4-triazin-6-yl)oxy) benzamide oxalate] | – | – | – | – | – | – | – | Green | Green | Green | Green | Green | Green | < 7.5
